Laboratory results from patent publication US20240016834A1, “ANTIMICROBIAL AGENT COMPOSITION AND MANUFACTURING METHOD AND PRODUCT THEREOF” (priority 2020, published 2024).

Experiments:
[1] = test system: Escherichia coli (E. coli) ATCC 8739; experiment: In vitro antibacterial power test (KFDA guidelines for external disinfectants), 5 minutes contact; assay type: cell-based; conditions: inoculum 1.3 × 10^3 CFU/mL
Description: (§1) The <Table 1> below is based on the official test report of a test that was requested to and performed by the Korea Analytical Testing Research Institute as a test institution. […] In this case, an inhibition rate (%) of the test result is as follows: Inhibition Rate (%)=(Number of Bacteria in Control Group−Number of Bacteria in Sample Group)/Number of Bacteria in Control Group.

[2] = test system: Salmonella Typhimurium ATCC 14028; experiment: as above; assay type: cell-based; conditions: inoculum 1.1 × 10^3 CFU/mL
Description: as §1

[3] = test system: Staphylococcus aureus ATCC 6538; experiment: as above; assay type: cell-based; conditions: inoculum 1.0 × 10^3 CFU/mL
Description: as §1

[4] = test system: Infectious bronchitis (corona virus); experiment: Administration test to broiler chicken 2 (farm); assay type: in vivo, broiler chicken (Ross); conditions: antibiotic administered before the Impact treatment
Procedure: In the second test, referring to <Table 3> in the below, infectious bronchitis (corona virus) occurred among 24,000 of Ross breeds at the age of 20 days at the broiler chicken consignment farm mentioned above. […] For the test, the product of the present invention was fed at the recommended dosage and was administered in the same way for 3 days.

CC1(C)S[C@@H]2[C@H](NC(=O)[C@H](N)c3ccccc3)C(=O)N2[C@H]1C(=O)O [Ampicillin 100, ampicillin]
Inhibition rate (%) of number of viable cells after 5 minutes [Antibacterial power] [1]: (99.9%) | Inhibition rate (%) of number of viable cells after 5 minutes [Antibacterial power] [2]: (98.6%) | number of viable cells after 5 minutes ([2]; control group 1.6 × 10^3): 2.1 × 10^1 CFU/mL | Inhibition rate (%) of number of viable cells after 5 minutes [Antibacterial power] [3]: (94.6%) | number of viable cells after 5 minutes ([3]; control group 1.5 × 10^3): 8.1 × 10^1 CFU/mL | respiratory symptoms [4]: symptoms persisted.
